Where “and” joins values, the source holds several entries; their conditions need not be identical. Identical values can stand only once.
Test system: MMT/MCLT rat model of OA
Assay: MMT/MCLT trial 1 histopathology (same doses)
Type: in vivo
Design: key to Tibial cartilage degeneration score, 3-zone total: sum of three tibial zone scores (each on 5-point scale); key to Total joint score w/o femur / Total joint score / Total joint score without femur: sum: cartilage degeneration scores + mean osteophyte score
Conditions: for % decrease, bone score / % decrease, femoral cartilage degeneration score / % decrease, osteophyte measure / % decrease, osteophyte score / % decrease, significant degeneration width / % decrease, tibial score 3-zone total / % decrease, tibial score zone 1 / % decrease, tibial score zone 2 / % decrease, tibial score zone 3 / % decrease, total degeneration width / % decrease, total joint score / % decrease, total joint score w/o femur / % decrease, depth ratio mean / % decrease, depth ratio zone 2: vs saline group
Text: For MMT/MCLT rat knee joints, sections were cut in 200-μm steps; stained with toluidine blue (also with a right and left half per section); and similarly analyzed for cartilage degeneration, proteoglycan loss, collagen damage, and osteophyte formation. Results were averaged across the three sections for an overall semiquantitative score. Regional differences across the tibial plateau were taken into consideration by dividing each section into three zones delineated using an ocular micrometer (outside, middle, and inside). Scores were based on the percentage of area affected within the zone.
Cartilage degeneration in the tibia was scored on a 5-point scale as detailed in the Methods section of Additional file 1. The total extent of degeneration of the tibial plateau was measured (in micrometers) and included an analysis of cell loss, proteoglycan loss, and collagen damage. Significant cartilage degeneration reflecting any degeneration extending through more than 50 % of the cartilage thickness was also measured. Collagen damage across the medial tibial plateau (the most severely affected section of the two halves) was also quantified.
Osteophytes and femoral cartilage degeneration were analyzed as detailed in Additional file 1. Scoring of the osteophytes and categorization into small, medium, and large was performed using an ocular micrometer. The actual osteophyte measurement (tidemark to farthest distance point extending toward the synovium) was also recorded. The femoral cartilage degeneration score and the three-zone sum of the tibial cartilage degeneration scores (mean of three levels) were summed to create a total cartilage degeneration score. The mean osteophyte score for each joint was added to this value to create a total joint score. […]
Histopathology MMT/MCLT Model

[1] = mean, tacrolimus 0.6 mg/kg, fluocinolone 10 μg/kg
[2] = tacrolimus 0.6 mg/kg, fluocinolone 10 μg/kg

COc1cc(/C=C/C(=O)CC(=O)/C=C/c2ccc(O)c(OC)c2)ccc1O [Curcumin, Diferuloylmethane]
Bone score (mean, low or only dose): 3.13
Femoral cartilage degeneration score (mean, low or only dose): 2.21 and 2.21 ± 0.60
Tibial cartilage degeneration score, 3-zone total (mean, low or only dose): 6.50
Tibial cartilage degeneration score, zone 1 (mean, low or only dose): 4.08
Tibial cartilage degeneration score, zone 2 (mean, low or only dose): 2.38
Tibial cartilage degeneration score, zone 3 (mean, low or only dose): 0.04
Tibial cartilage degeneration width, significant (mean, low or only dose): 741.67 µm
Tibial cartilage degeneration width, total (mean, low or only dose): 1312.50 µm
Tibial osteophyte measure (mean, low or only dose): 592.92 µm
Tibial osteophyte score (mean, low or only dose): 4.25
Total joint score (mean, low or only dose): 12.96 and 12.96 ± 0.62
Total joint score w/o femur (mean, low or only dose): 10.75
% decrease, bone score (low or only dose): 4%
% decrease, femoral cartilage degeneration score (low or only dose): -20%
% decrease, osteophyte measure (low or only dose): -16%
% decrease, osteophyte score (low or only dose): -9%
% decrease, significant degeneration width (low or only dose): -2%
% decrease, tibial score 3-zone total (low or only dose): 1%
% decrease, tibial score zone 1 (low or only dose): 5%
% decrease, tibial score zone 2 (low or only dose): -8%
% decrease, tibial score zone 3 (low or only dose): 0%
% decrease, total degeneration width (low or only dose): 0%
% decrease, total joint score (low or only dose): -5%
% decrease, total joint score w/o femur (low or only dose): -3%

C=CC[C@@H]1/C=C(\C)C[C@H](C)C[C@H](OC)[C@H]2O[C@@](O)(C(=O)C(=O)N3CCCC[C@H]3C(=O)O[C@H](/C(C)=C/[C@@H]3CC[C@@H](O)[C@H](OC)C3)[C@H](C)[C@@H](O)CC1=O)[C@H](C)C[C@@H]2OC [Tacrolimus]
Bone score (mean, low or only dose): 2.63
Depth ratio any matrix change, mean (mean, low or only dose): 0.26
Depth ratio any matrix change, zone 2 (mean, low or only dose): 0.07
Tibial cartilage degeneration score, 3-zone total (mean, low or only dose): 4.25
Tibial cartilage degeneration score, zone 1 (mean, low or only dose): 2.75
Tibial cartilage degeneration score, zone 2 (mean, low or only dose): 1.50
Tibial cartilage degeneration score, zone 3 (mean, low or only dose): 0.00
Tibial cartilage degeneration width, significant (mean, low or only dose): 441.67 µm
Tibial cartilage degeneration width, total (mean, low or only dose): 1137.50 µm
Tibial osteophyte measure (mean, low or only dose): 370.83 µm
Tibial osteophyte score (mean, low or only dose): 2.38
Total joint score w/o femur (mean, low or only dose): 6.63
Bone score [1]: 3.00
Depth ratio any matrix change, mean [1]: 0.22
Depth ratio any matrix change, zone 2 [1]: 0.02
Tibial cartilage degeneration score, 3-zone total [1]: 3.63
Tibial cartilage degeneration score, zone 1 [1]: 2.42
Tibial cartilage degeneration score, zone 2 [1]: 1.21
Tibial cartilage degeneration score, zone 3 [1]: 0.00
Tibial cartilage degeneration width, significant [1]: 325.00 μm
Tibial cartilage degeneration width, total [1]: 945.83 μm
Tibial osteophyte measure [1]: 370.00 μm
Tibial osteophyte score [1]: 2.38
Total joint score w/o femur [1]: 6.00
% decrease, combined width severe+marked (tacrolimus 0.3 mg/kg): 86%
% decrease, combined width severe+marked+moderate (tacrolimus 0.3 mg/kg): 88%
% decrease, combined width severe+marked+moderate+mild (tacrolimus 0.3 mg/kg): 33%
% decrease, width of moderate collagen degeneration (tacrolimus 0.3 mg/kg): 91%
% decrease, width of severe collagen degeneration (tacrolimus 0.3 mg/kg): 97%
% increase, area of any cartilage matrix (tacrolimus 0.3 mg/kg): 59%
% increase, area of viable cartilage matrix (tacrolimus 0.3 mg/kg, fluocinolone 5 ug/kg): 26%
% decrease, combined width severe+marked (tacrolimus 0.6 mg/kg): 99%
% decrease, combined width severe+marked+moderate (tacrolimus 0.6 mg/kg): 96%
% decrease, combined width severe+marked+moderate+mild (tacrolimus 0.6 mg/kg): 53%
% decrease, width of marked collagen degeneration (tacrolimus 0.6 mg/kg): 97%
% decrease, width of severe collagen degeneration (tacrolimus 0.6 mg/kg): 100%
% decrease, width of total collagen degeneration (tacrolimus 0.6 mg/kg): 19%
% increase, area of any cartilage matrix (tacrolimus 0.6 mg/kg): 69%
% increase, width of normal collagen (tacrolimus 0.6 mg/kg): 19%
% increase, area of viable cartilage matrix (tacrolimus 0.6 mg/kg, fluocinolone 10 ug/kg): 33%
% decrease, bone score (low or only dose): 19%
% decrease, depth ratio mean (low or only dose): 29%
% decrease, depth ratio zone 2 (low or only dose): 59%
% decrease, femoral cartilage degeneration score (low or only dose): 73%
% decrease, osteophyte measure (low or only dose): 28%
% decrease, osteophyte score (low or only dose): 39%
% decrease, significant degeneration width (low or only dose): 39%
% decrease, tibial score 3-zone total (low or only dose): 35%
% decrease, tibial score zone 1 (low or only dose): 36%
% decrease, tibial score zone 2 (low or only dose): 32%
% decrease, tibial score zone 3 (low or only dose): 100%
% decrease, total degeneration width (low or only dose): 13%
% decrease, total joint score (low or only dose): 42%
% decrease, total joint score w/o femur (low or only dose): 37%
% decrease, bone score [2]: 8%
% decrease, depth ratio mean [2]: 40%
% decrease, depth ratio zone 2 [2]: 87%
% decrease, femoral cartilage degeneration score [2]: 48%
% decrease, osteophyte measure [2]: 28%
% decrease, osteophyte score [2]: 39%
% decrease, significant degeneration width [2]: 55%
% decrease, tibial score 3-zone total [2]: 45%
% decrease, tibial score zone 1 [2]: 44%
% decrease, tibial score zone 2 [2]: 45%
% decrease, tibial score zone 3 [2]: 100%
% decrease, total degeneration width [2]: 28%
% decrease, total joint score [2]: 43%
% decrease, total joint score w/o femur [2]: 43%

— PMC4721142, “Randomized controlled studies on the efficacy of antiarthritic agents in inhibiting cartilage degeneration and pain associated with progression of osteoarthritis in the rat” (Arthritis Research & Therapy, 2016)
